Experimental data from patent US6673938B1, “Substituted pyridine herbicides” (Syngenta Participations AG, priority 1998, dated 2004).

Columns and labels:
[1] = tested on: Monocotyledonous and dicotyledonous test plants; assay: Herbicidal action before emergence of the plants (pre-emergence action); type: in vivo; conditions: evaluated after 3 weeks, nine-step scale; for pre-emergence action, Cyperus / pre-emergence action, Ipomoea / pre-emergence action, Setaria / pre-emergence action, Sinapis / pre-emergence action, Solanum / pre-emergence action, Stellaria: 2000 g/ha
How it was run: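 Sprayed onto soil immediately after sowing as WP suspension or EC emulsion at 2 kg or 250 g a.i./ha (500 l water/ha). Greenhouse growth for 3 weeks, then scored on a nine-step scale (1 = complete damage, 9 = no effect).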

[2] = tested on: Monocotyledonous and dicotyledonous test plants; assay: Post-emergence herbicidal action; type: in vivo; conditions: evaluated after approximately 18 days; for Post-emergence action, Ipomoea / Post-emergence action, Lolium / Post-emergence action, Setaria / Post-emergence action, Sinapis / Post-emergence action, Solanum / Post-emergence action, Stellaria: 2000 g/ha, sprayed in 4- to 6-leaf stage, nine-step scale
How it was run: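 Greenhouse plants sprayed at the 4- to 6-leaf stage with test substance as wettable-powder suspension or emulsion-concentrate emulsion, 2 kg or 250 g a.i./ha in 500 l water/ha. Scored after about 18 days on a nine-step scale (1=complete damage, 9=no effect).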

SMILES	melting point [°C]	pre-emergence action, Cyperus [1]	pre-emergence action, Ipomoea [1]	pre-emergence action, Setaria [1]	pre-emergence action, Sinapis [1]	pre-emergence action, Solanum [1]	pre-emergence action, Stellaria [1]	Post-emergence action, Ipomoea [2]	Post-emergence action, Lolium [2]	Post-emergence action, Setaria [2]	Post-emergence action, Sinapis [2]	Post-emergence action, Solanum [2]	Post-emergence action, Stellaria [2]	other results
Cc1nc(C(F)(F)F)ccc1C(=O)C1=C(O)CCCC1=O [Compound A2-B1, 3-hydroxy-2-(2-methyl-6-trifluoromethylpyridine-3-carbonyl)cyclohex-2-enone]	90 to 92	2	2	1	2	2	1	1	2	1	1	1	2	–
Cc1nc(C(F)(F)F)ccc1C(=O)C1=C(O)C(C)(C)CCC1=O [Compound A2-B24, 3-Hydroxy-4,4-dimethyl-2-(2-methyl-6-trifluoromethylpyridine-3-carbonyl)cyclohex-2-enone]	75 to 76	1	1	1	2	1	1	1	2	2	1	2	2	–
Cc1nc(C(F)(F)F)ccc1C(=O)C1=C(O)C(C)(C)C(=O)C(C)(C)C1=O [Compound A2-B354, 5-hydroxy-2,2,6,6-tetramethyl-4-(2-methyl-6-trifluoromethylpyridine-3-carbonyl)cyclohex-4-ene-1,3-dione]	139 to 140	1	1	1	1	1	2	2	2	2	2	2	2	–
Cc1nc(C(F)(F)F)ccc1C(=O)C1=C(Sc2ccccc2)CCCC1=O [Compound A2-B1102, 2-(2-methyl-6-trifluoromethylpyridine-3-carbonyl)-3-phenylsulfanylcyclohex-2-enone]	124 to 125	–	–	–	–	–	–	–	–	–	–	–	–	–
Cc1nc(C(F)(F)F)ccc1C(=O)C1=C(S(=O)(=O)c2ccccc2)CCCC1=O [Compound A2-B1104, 3-Benzenesulfonyl-2-(2-methyl-6-trifluoromethylpyridine-3-carbonyl)cyclohex-2-enone]	165 to 167	–	–	–	–	–	–	–	–	–	–	–	–	–
Cc1c(C(=O)C2=C(O)C(C)(C)C(=O)C(C)(C)C2=O)ccc(C(F)(F)F)[n+]1[O-] [Compound A1210-B354]	–	2	3	2	1	1	2	2	2	2	1	1	2	–
Cc1c(C(=O)C2=C(Cl)C(C)(C)C(=O)C(C)(C)C2=O)ccc(C(F)(F)F)[n+]1[O-] [Compound A1210-B1105, 5-Chloro-2,2,6,6-tetramethyl-4-(2-methyl-1-oxy-6-trifluoromethylpyridine-3-carbonyl)cyclohex-4-ene-1,3-dione]	–	–	–	–	–	–	–	–	–	–	–	–	–	Pre-emergence action, Abutilon ([1]; Abutilon, 250 g/ha): 1; Pre-emergence action, Amaranthus ([1]; Amaranthus, 250 g/ha): 4; Pre-emergence action, Chenop. ([1]; Chenop., 250 g/ha): 1; Pre-emergence action, Digitaria ([1]; Digitaria, 250 g/ha): 3; Pre-emergence action, Echino. ([1]; Echino., 250 g/ha): 2; Pre-emergence action, Panicum ([1]; Panicum, 250 g/ha): 2; Post-emergence action: Abutilon (score, nine-step scale) ([2]; Abutilon, 250 g/ha, sprayed at 4- to 6-leaf stage): 2; Post-emergence action: Chenop. (score, nine-step scale) ([2]; Chenop., 250 g/ha, sprayed at 4- to 6-leaf stage): 1; Post-emergence action: Digitaria (score, nine-step scale) ([2]; Digitaria, 250 g/ha, sprayed at 4- to 6-leaf stage): 2; Post-emergence action: Echino. (score, nine-step scale) ([2]; Echino., 250 g/ha, sprayed at 4- to 6-leaf stage): 3; Post-emergence action: Ipopur. (score, nine-step scale) ([2]; Ipopur., 250 g/ha, sprayed at 4- to 6-leaf stage): 2; Post-emergence action: Panicum (score, nine-step scale) ([2]; Panicum, 250 g/ha, sprayed at 4- to 6-leaf stage): 1; Post-emergence action: Xanth. (score, nine-step scale) ([2]; Xanth., 250 g/ha, sprayed at 4- to 6-leaf stage): 2

Further lines, with some results ahead:

melting point [°C]	SMILES	pre-emergence action, Cyperus [1]	pre-emergence action, Ipomoea [1]	pre-emergence action, Setaria [1]	pre-emergence action, Sinapis [1]	pre-emergence action, Solanum [1]	pre-emergence action, Stellaria [1]	Post-emergence action, Ipomoea [2]	Post-emergence action, Lolium [2]	Post-emergence action, Setaria [2]	Post-emergence action, Sinapis [2]	Post-emergence action, Solanum [2]	Post-emergence action, Stellaria [2]	other results
119	Cc1nc(C(F)(F)F)ccc1C(=O)C1=C(Cl)C(C)(C)C(=O)C(C)(C)C1=O [Compound A2-B1105, 5-Chloro-2,2,6,6-tetramethyl-4-(2-methyl-6-trifluoromethylpyridine-3-carbonyl)cyclohex-4-ene-1,3-dione]	–	–	–	–	–	–	–	–	–	–	–	–	–
108 to 110	COC(=O)C1(C)CCC(=O)C(C(=O)c2ccc(C(F)(F)Cl)nc2C)=C1O (stereo not drawn) [Compound A94-B34, methyl 3-[6-(chlorodifluoromethyl)-2-methylpyridine-3-carbonyl]-2-hydroxy-1-methyl-4-oxocyclohex-2-enecarboxylate]	–	–	–	–	–	–	–	–	–	–	–	–	–
94.5 to 95	CC1(C)C(=O)C(C(=O)c2ccc(C(F)(F)F)nc2CBr)=C(Cl)C(C)(C)C1=O [Compound A1029-B1105, 4-(2-Bromomethyl-6-trifluoromethylpyridine-3-carbonyl)-5-chloro-2,2,6,6-tetramethylcyclohex-4-ene-1,3-dione]	–	–	–	–	–	–	–	–	–	–	–	–	–
